# Data taken from ChEMBL document CHEMBL3871284, “Structure-activity relationship-based screening of antibiotics against Gram-negative Acinetobacter baumannii” (Bioorg Med Chem, 2017).
# Activity calls are given as the source filed them. The calls are words filed in the database; no cut-off is given here.
# How the values were obtained:
# [1] = tested on: Staphylococcus aureus; experiment: Antimicrobial activity against Staphylococcus aureus after 16 hrs by broth microdilution assay; type: functional
# [2] = tested on: Escherichia coli; experiment: Antimicrobial activity against multidrug resistant Escherichia coli CCARM 1229 after 16 hrs by broth microdilution assay; type: functional; conditions: CCARM 1229, 16 h
# [3] = tested on: Staphylococcus epidermidis; experiment: Antimicrobial activity against Staphylococcus epidermidis after 16 hrs by broth microdilution assay; type: functional
# [4] = tested on: Acinetobacter baumannii; experiment: Antimicrobial activity against multidrug resistant Acinetobacter baumannii CCARM 12005 after 16 hrs by broth microdilution assay; type: functional; conditions: CCARM 12005, 16 h
# [5] = Binding affinity to Acinetobacter baumannii His-tagged KAS3 expressed in Escherichia coli BL21(DE3) by tryptophan emission assay
# [6] = tested on: Pseudomonas aeruginosa; experiment: Antimicrobial activity against Pseudomonas aeruginosa KCTC 1637 after 16 hrs by broth microdilution assay; type: functional; conditions: KCTC 1637, 16 h
# [7] = tested on: Acinetobacter baumannii; experiment: Antimicrobial activity against multidrug resistant Acinetobacter baumannii CCARM 12037 after 16 hrs by broth microdilution assay; type: functional; conditions: CCARM 12037, 16 h
# [8] = tested on: Staphylococcus aureus; experiment: Antimicrobial activity against Methicillin-resistant Staphylococcus aureus 3126 after 16 hrs by broth microdilution assay; type: functional; conditions: Staphylococcus aureus, 3126, 16 h
# [9] = tested on: Staphylococcus aureus; experiment: Antimicrobial activity against Methicillin-resistant Staphylococcus aureus isolate 3114 after 16 hrs by broth microdilution assay; type: functional; conditions: isolate 3114, 16 h
# [10] = tested on: Pseudomonas aeruginosa; experiment: Antimicrobial activity against multidrug resistant Pseudomonas aeruginosa CCARM 2163 after 16 hrs by broth microdilution assay; type: functional; conditions: CCARM 2163, 16 h
# [11] = tested on: Acinetobacter baumannii; experiment: Antimicrobial activity against Acinetobacter baumannii KCTC 2508 after 16 hrs by broth microdilution assay; type: functional; conditions: KCTC 2508, 16 h
# [12] = tested on: Acinetobacter baumannii; experiment: Antimicrobial activity against multidrug resistant Acinetobacter baumannii CCARM 12036 after 16 hrs by broth microdilution assay; type: functional; conditions: CCARM 12036, 16 h
# [13] = tested on: Bacillus subtilis; experiment: Antimicrobial activity against Bacillus subtilis after 16 hrs by broth microdilution assay; type: functional
# [14] = tested on: Pseudomonas aeruginosa; experiment: Antimicrobial activity against multidrug resistant Pseudomonas aeruginosa CCARM 2095 after 16 hrs by broth microdilution assay; type: functional; conditions: CCARM 2095, 16 h
# [15] = tested on: Escherichia coli; experiment: Antimicrobial activity against multidrug resistant Escherichia coli CCARM 1238 after 16 hrs by broth microdilution assay; type: functional; conditions: CCARM 1238, 16 h
# [16] = tested on: Acinetobacter baumannii; experiment: Antimicrobial activity against multidrug resistant Acinetobacter baumannii CCARM 12035 after 16 hrs by broth microdilution assay; type: functional; conditions: CCARM 12035, 16 h
# [17] = tested on: Escherichia coli; experiment: Antimicrobial activity against Escherichia coli KCTC 1682 after 16 hrs by broth microdilution assay; type: functional; conditions: KCTC 1682, 16 h
# [18] = tested on: Pseudomonas aeruginosa; experiment: Antimicrobial activity against multidrug resistant Pseudomonas aeruginosa CCARM 2002 after 16 hrs by broth microdilution assay; type: functional; conditions: CCARM 2002, 16 h
# [19] = Antiinflammatory activity in mouse RAW264.7 cells assessed as inhibition of LPS-stimulated IL6 mRNA expression at 10 uM after 3 hrs in presence of LPS by RT-PCR analysis; type: functional; conditions: RAW264.7, 3 h
# [20] = Antiinflammatory activity in mouse RAW264.7 cells assessed as inhibition of LPS-stimulated TNFalpha mRNA expression at 10 uM after 3 hrs in presence of LPS by RT-PCR analysis; type: functional; conditions: RAW264.7, 3 h
# [21] = Antiinflammatory activity in mouse RAW264.7 cells assessed as inhibition of LPS-stimulated MIP2 mRNA expression at 10 uM after 3 hrs in presence of LPS by RT-PCR analysis; type: functional; conditions: RAW264.7, 3 h
# [22] = Antiinflammatory activity in mouse RAW264.7 cells assessed as inhibition of LPS-stimulated IL1beta mRNA expression at 10 uM after 3 hrs in presence of LPS by RT-PCR analysis; type: functional; conditions: RAW264.7, 3 h
# [23] = tested on: RAW264.7; experiment: Antiinflammatory activity in mouse RAW264.7 cells assessed as inhibition of LPS-stimulated NO production at 10 to 20 uM after 24 hrs in presence of LPS; type: functional, cell-based
# [24] = Antiinflammatory activity in mouse RAW264.7 cells assessed as inhibition of LPS-stimulated iNOS mRNA expression at 10 uM after 3 hrs in presence of LPS by RT-PCR analysis; type: functional; conditions: RAW264.7, 3 h
# [25] = Antiinflammatory activity in mouse RAW264.7 cells assessed as inhibition of LPS-stimulated MIP1 mRNA expression at 10 uM after 3 hrs in presence of LPS by RT-PCR analysis; type: functional; conditions: RAW264.7, 3 h
# [26] = Binding affinity to Acinetobacter baumannii His-tagged KAS3 expressed in Escherichia coli BL21(DE3) by isothermal titration calorimetry assay
Structure (SMILES),MIC [1] [µg/mL],MIC [2] [µg/mL],MIC [3] [µg/mL],MIC [4] [µg/mL],Kd [5] [µM],MIC [6] [µg/mL],MIC [7] [µg/mL],MIC [8] [µg/mL],MIC [9] [µg/mL],MIC [10] [µg/mL],MIC [11] [µg/mL],MIC [12] [µg/mL],MIC [13] [µg/mL],MIC [14] [µg/mL],MIC [15] [µg/mL],MIC [16] [µg/mL],MIC [17] [µg/mL],MIC [18] [µg/mL],also measured
CCCOc1ccc(/C=N/NCc2ccc3ccccc3c2)c(O)c1,> 32,> 32,> 32,> 32,21.7,> 32,> 32,> 32,> 32,> 32,> 32,> 32,> 32,> 32,> 32,> 32,> 32,> 32,–
COc1ccc(/C=N/NCc2ccc(C(F)(F)F)cc2)c(O)c1,> 32,> 32,> 32,> 32,22,> 32,> 32,> 32,> 32,> 32,> 32,> 32,> 32,> 32,> 32,> 32,> 32,> 32,–
CCCOc1ccc(/C=N/NCc2ccc(C(F)(F)F)cc2)c(O)c1,> 32,> 32,> 32,> 32,28.8,> 32,> 32,> 32,> 32,> 32,> 32,> 32,> 32,> 32,> 32,> 32,> 32,> 32,–
Cc1ccc(/C=N/NCc2ccc(O)cc2O)cc1Cl,8,> 32,8,4,0.916,4,2,> 32,32,32,2,2,16,32,> 32,2,32,> 32,inhibition at 10 µM [19]: 50.6%; inhibition at 10 µM [20]: > 70%; inhibition at 10 µM [21]: > 70%; inhibition at 10 µM [22]: 10.3%; inhibition [23]: Active; inhibition at 10 µM [24]: > 70%; inhibition at 10 µM [25]: > 70%; Kd [26]: 0.197 µM
COc1ccccc1/C=N/NCc1ccc(C(=O)O)cc1,> 32,> 32,> 32,> 32,20.2,> 32,> 32,> 32,> 32,> 32,> 32,> 32,> 32,> 32,> 32,> 32,> 32,> 32,–
Oc1ccc(/C=N/NCc2cccc(C(F)(F)F)c2)cc1,32,> 32,32,16,0.22,32,16,> 32,> 32,> 32,8,16,32,> 32,> 32,16,32,> 32,inhibition at 10 µM [19]: 50.6%; inhibition at 10 µM [20]: > 70%; inhibition at 10 µM [21]: > 70%; inhibition at 10 µM [22]: 63.5%; inhibition [23]: Active; inhibition at 10 µM [24]: > 70%; inhibition at 10 µM [25]: > 70%; Kd [26]: 0.127 µM
COc1ccc(O)c(/C=N/NCc2cccc(C(F)(F)F)c2)c1,> 32,> 32,> 32,> 32,> 100,> 32,> 32,> 32,> 32,> 32,> 32,> 32,> 32,> 32,> 32,> 32,> 32,> 32,–
COc1ccc(/C=N/NCc2ccc(C(=O)O)cc2)c(OC)c1,> 32,> 32,> 32,> 32,72.5,> 32,> 32,> 32,> 32,> 32,> 32,> 32,> 32,> 32,> 32,> 32,> 32,> 32,–
Oc1ccc(/C=N/NCc2ccc(C(F)(F)F)cc2)c(O)c1,2,> 32,16,8,0.596,> 32,16,8,4,> 32,16,16,4,> 32,> 32,16,> 32,> 32,–
COc1ccc(/C=N/NCc2ccc(C)cc2)c(O)c1,> 32,> 32,> 32,> 32,> 100,> 32,> 32,> 32,> 32,> 32,> 32,> 32,> 32,> 32,> 32,> 32,> 32,> 32,–
CCOc1ccc(/C=N/NCc2ccc(Cl)c(Cl)c2)c(O)c1,> 32,> 32,> 32,> 32,> 100,> 32,> 32,> 32,> 32,> 32,> 32,> 32,> 32,> 32,> 32,> 32,> 32,> 32,–
Oc1cccc(Br)c1/C=N/NCc1cccc(C(F)(F)F)c1,> 32,> 32,> 32,> 32,> 100,> 32,> 32,> 32,> 32,> 32,> 32,> 32,> 32,> 32,> 32,> 32,> 32,> 32,–
